Legend:
human CRTH2 [1] = target: T1, human CRTH2 (Homo sapiens, UniProt Q9Y5Y4, V204A); test: Functional antagonist BRET assay on HEK293 cells stably expressing human CRTH2-Rluc and GFP2-β-arr2; assay type: cell-based; set-up: expressed in transfected cells; conditions: read-out: Antag. IC50
T1 sequence (Q9Y5Y4 1-395 V204A): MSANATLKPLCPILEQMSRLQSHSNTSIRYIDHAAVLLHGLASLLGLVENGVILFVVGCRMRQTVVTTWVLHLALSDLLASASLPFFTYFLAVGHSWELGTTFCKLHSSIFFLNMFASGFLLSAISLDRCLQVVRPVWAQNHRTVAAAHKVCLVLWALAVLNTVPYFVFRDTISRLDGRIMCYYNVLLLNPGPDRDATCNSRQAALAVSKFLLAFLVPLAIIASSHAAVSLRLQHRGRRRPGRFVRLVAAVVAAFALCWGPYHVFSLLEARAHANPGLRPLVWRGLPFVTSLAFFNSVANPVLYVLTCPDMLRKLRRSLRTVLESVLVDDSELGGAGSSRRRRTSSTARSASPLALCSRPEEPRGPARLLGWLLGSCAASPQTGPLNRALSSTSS
Procedure, shortened: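 Cells (2×10^6/mL in D-PBS with glucose) were preincubated 15 min with antagonist at 1% DMSO, then agonist and DeepBlueC were co-injected. Emission at 400 and 515 nm was read 5 s later, and the mBRET ratio (515/400 nm) was used to derive IC50 from concentration–response curves.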

human CRTH2 [2] = target: T1, human CRTH2; test: Receptor binding assay: [3H]PGD2 competition binding on whole COS-7 cells transiently transfected with CRTH2 (also stable HEK293 cells); set-up: expressed in transfected cells; host or cells: COS-7 (transient, calcium phosphate)
Procedure, shortened: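 Whole COS-7 cells transiently transfected with human CRTH2 (calcium phosphate), or stable HEK293 cells, competed against 0.1 nM [3H]PGD2 in HBSS/10 mM HEPES with 1% DMSO, 3 h at 4 °C. Nonspecific binding with 10 μM PGD2; scintillation counting, duplicates. IC50 from curve fitting.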

[3] = BRET, antagonist incubated 15 minutes prior to agonist
[4] = competition with 0.1 nM [3H]PGD2, whole cells, 3 h at 4° C.
[5] = functional antagonist assay, Table 3
[6] = receptor binding assay, Table 3

## CCc1cccc(CC)c1-n1cc(C(=O)c2cc(Br)ccc2OCC(=O)O)cn1 [D70, {4-Bromo-2-[1-(2,6-diethyl-phenyl)-1H-pyrazole-4-carbonyl]phenoxy}acetic acid]
Human CRTH2 [1]; [3]
  IC50: < 500 nM
Human CRTH2 [2]; [4]
  IC50: < 500 nM

## Cc1cccc(C)c1-n1cc(C(=O)c2cc(Br)ccc2OCC(=O)O)cn1 [D71, {4-Bromo-2-[1-(2,6-dimethylphenyl)-1H-pyrazole-4-carbonyl]phenoxy}acetic acid]
Human CRTH2 [1]; [3]
  IC50: < 500 nM
Human CRTH2 [2]; [4]
  IC50: < 500 nM

## CCc1cccc(C)c1-n1cc(C(=O)c2cc(Br)ccc2OCC(=O)O)cn1 [D72, {4-Bromo-2-[1-(2-ethyl-6-methylphenyl)-1H-pyrazole-4-carbonyl]phenoxy}acetic acid]
Human CRTH2 [1]; [3]
  IC50: < 500 nM
Human CRTH2 [2]; [4]
  IC50: < 500 nM

## CC(C)c1ccccc1-n1cc(C(=O)c2cc(Br)ccc2OCC(=O)O)cn1 [D73, {4-Bromo-2-[1-(2-isopropylphenyl)-1H-pyrazole-4-carbonyl]phenoxy}acetic acid]
Human CRTH2 [1]; [3]
  IC50: < 500 nM
Human CRTH2 [2]; [4]
  IC50: < 500 nM

## CCOc1ccc(OCC(=O)O)c(C(=O)c2cnn(-c3ccccc3)c2)c1 [D74, [4-Ethoxy-2-(1-phenyl-1H-pyrazole-4-carbonyl)phenoxy]acetic acid]
Human CRTH2 [1]; [3]
  IC50: > 5000 nM
Human CRTH2 [2]; [4]
  IC50: 500 to 5000 nM

## CCCCc1ccc(OCC(=O)O)c(C(=O)c2cnn(-c3ccccc3)c2)c1 [D75, [4-Butyl-2-(1-phenyl-1H-pyrazole-4-carbonyl)phenoxy]acetic acid]
Human CRTH2 [1]; [3]
  IC50: > 5000 nM
Human CRTH2 [2]; [4]
  IC50: < 500 nM

## Cc1cccc(Cl)c1-n1cc(C(=O)c2cc(Br)ccc2OCC(=O)O)cn1 [D76, {4-Bromo-2-[1-(2-chloro-6-methylphenyl)-1H-pyrazole-4-carbonyl]phenoxy}acetic acid]
Human CRTH2 [1]; [3]
  IC50: < 500 nM
Human CRTH2 [2]; [4]
  IC50: < 500 nM

## Cc1cccc(C)c1-n1cc(C(=O)c2cc(Br)ccc2OC(C)C(=O)O)cn1 (stereo not shown) [D77, 2-{4-Bromo-2-[1-(2,6-dimethylphenyl)-1H-pyrazole-4-carbonyl]phenoxy}propionic acid]
Human CRTH2 [1]; [3]
  IC50: < 500 nM
Human CRTH2 [2]; [4]
  IC50: < 500 nM

## CCc1cccc(CC)c1-n1cc(C(=O)c2cc(Br)ccc2OC(C)C(=O)O)cn1 (stereo not shown) [D78, 2-{4-Bromo-2-[1-(2,6-diethylphenyl)-1H-pyrazole-4-carbonyl]phenoxy}propionic acid]
Human CRTH2 [1]; [3]
  IC50: < 500 nM
Human CRTH2 [2]; [4]
  IC50: < 500 nM

## CC(Oc1ccc(Br)cc1C(=O)c1cnn(-c2ccccc2C(C)C)c1)C(=O)O (stereo not shown) [D79, 2-{4-Bromo-2-[1-(2-isopropylphenyl)-1H-pyrazole-4-carbonyl]phenoxy}propionic acid]
Human CRTH2 [1]; [3]
  IC50: < 500 nM
Human CRTH2 [2]; [4]
  IC50: < 500 nM

## O=C(O)COc1ccc(Br)cc1C(=O)c1cnn(-c2c(Cl)cncc2Cl)c1 [D80, {4-Bromo-2-[1-(3,5-dichloropyridin-4-yl)-1H-pyrazole-4-carbonyl]phenoxy}acetic acid]
Human CRTH2 [1]; [3]
  IC50: < 500 nM
Human CRTH2 [2]; [4]
  IC50: < 500 nM

## O=C(O)COc1ccc(Br)cc1C(=O)c1cnn(-c2ccc(C(F)(F)F)cc2)c1 [D81, {4-Bromo-2-[1-(4-trifluoromethylphenyl)-1H-pyrazole-4-carbonyl]phenoxy}acetic acid]
Human CRTH2 [1]; [3]
  IC50: < 500 nM
Human CRTH2 [2]; [4]
  IC50: < 500 nM

## O=C(O)COc1ccc(Br)cc1C(=O)c1cnn(-c2cccc3ccccc23)c1 [D82, [4-Bromo-2-(1-naphthalen-1-yl-1H-pyrazole-4-carbonyl)phenoxy]acetic acid]
Human CRTH2 [1]; [3]
  IC50: < 500 nM
Human CRTH2 [2]; [4]
  IC50: < 500 nM

## O=C(O)COc1ccc(Br)cc1-c1coc(-c2ccccc2)n1 [D83, [4-Bromo-2-(2-phenyloxazol-4-yl)phenoxy]acetic acid]
Human CRTH2 [1]; [3]
  IC50: > 5000 nM
Human CRTH2 [2]; [4]
  IC50: < 500 nM

## COc1ccc(-c2nc(-c3cc(Br)ccc3OCC(=O)O)co2)cc1 [D84, {4-Bromo-2-[2-(4-methoxyphenyl)oxazol-4-yl]phenoxy}acetic acid]
Human CRTH2 [1]; [3]
  IC50: 500 to 5000 nM
Human CRTH2 [2]; [4]
  IC50: < 500 nM

## O=C(O)COc1ccc(Br)cc1-c1coc(-c2ccc(Cl)cc2)n1 [D85, {4-Bromo-2-[2-(4-chlorophenyl)oxazol-4-yl]phenoxy}acetic acid]
Human CRTH2 [1]; [3]
  IC50: > 5000 nM
Human CRTH2 [2]; [4]
  IC50: < 500 nM

## COc1cccc(-c2nc(-c3cc(Br)ccc3OCC(=O)O)co2)c1 [D86, {4-Bromo-2-[2-(3-methoxyphenyl)oxazol-4-yl]phenoxy}acetic acid]
Human CRTH2 [1]; [3]
  IC50: < 500 nM
Human CRTH2 [2]; [4]
  IC50: < 500 nM

## CCOc1ccc(-c2nc(-c3cc(Br)ccc3OCC(=O)O)co2)cc1 [D87, {4-Bromo-2-[2-(4-ethoxyphenyl)oxazol-4-yl]phenoxy}acetic acid]
Human CRTH2 [1]; [3]
  IC50: > 5000 nM
Human CRTH2 [2]; [4]
  IC50: < 500 nM

## O=C(O)COc1ccc(Br)cc1-c1coc(Cc2ccccc2)n1 [D88, [2-(2-Benzyloxazol-4-yl)-4-bromophenoxy]acetic acid]
Human CRTH2 [1]; [3]
  IC50: < 500 nM
Human CRTH2 [2]; [4]
  IC50: < 500 nM

## COc1cccc(Cc2nc(-c3cc(Br)ccc3OCC(=O)O)co2)c1 [D89, {4-Bromo-2-[2-(3-methoxybenzyl)oxazol-4-yl]phenoxy}acetic acid]
Human CRTH2 [1]; [3]
  IC50: < 500 nM
Human CRTH2 [2]; [4]
  IC50: < 500 nM

## O=C(O)COc1ccc(Br)cc1-c1coc(Cc2ccc(F)cc2Cl)n1 [D90, {4-Bromo-2-[2-(2-chloro-4-fluorobenzyl)oxazol-4-yl]phenoxy}acetic acid]
Human CRTH2 [1]; [3]
  IC50: < 500 nM
Human CRTH2 [2]; [4]
  IC50: < 500 nM

## O=C(O)COc1ccc(Br)cc1-c1coc(Cc2c(Cl)cccc2Cl)n1 [D91, {4-Bromo-2-[2-(2,6-dichlorobenzyl)oxazol-4-yl]phenoxy}acetic acid]
Human CRTH2 [1]; [3]
  IC50: < 500 nM
Human CRTH2 [2]; [4]
  IC50: < 500 nM

## COc1ccc(Cc2nc(-c3cc(Br)ccc3OCC(=O)O)co2)cc1 [D92, {4-Bromo-2-[2-(4-methoxybenzyl)oxazol-4-yl]phenoxy}acetic acid]
Human CRTH2 [1]; [3]
  IC50: < 500 nM
Human CRTH2 [2]; [4]
  IC50: < 500 nM

## O=C(O)COc1ccc(Br)cc1-c1csc(-c2ccccc2)n1 [D93, [4-Bromo-2-(2-phenylthiazol-4-yl)phenoxy]acetic acid]
Human CRTH2 [1]; [3]
  IC50: < 500 nM
Human CRTH2 [2]; [4]
  IC50: < 500 nM

## O=C(O)COc1ccc(Br)cc1-c1csc(Cc2ccc(Cl)cc2)n1 [D94, {4-Bromo-2-[2-(4-chlorobenzyl)thiazol-4-yl]phenoxy}acetic acid]
Human CRTH2 [1]; [3]
  IC50: < 500 nM
Human CRTH2 [2]; [4]
  IC50: < 500 nM

## O=C(O)COc1ccc(Br)cc1C(=O)c1cnc(-c2ccccc2)s1 [D95, [4-Bromo-2-(2-phenylthiazole-5-carbonyl)phenoxy]acetic acid]
Human CRTH2 [1]; [3]
  IC50: < 500 nM
Human CRTH2 [2]; [4]
  IC50: < 500 nM

## O=C(O)COc1ccc(Br)cc1-c1nc(-c2ccccc2)co1 [D96, [4-Bromo-2-(4-phenyl-oxazol-2-yl)-phenoxy]acetic acid]
Human CRTH2 [1]; [3]
  IC50: 500 to 5000 nM
Human CRTH2 [2]; [4]
  IC50: < 500 nM

## O=C(O)COc1ccc(Br)cc1C(=O)c1cc(-c2ccccc2)no1 [D97, [4-Bromo-2-(3-phenylisoxazole-5-carbonyl)phenoxy]acetic acid]
Human CRTH2 [1]; [3]
  IC50: < 500 nM
Human CRTH2 [2]; [4]
  IC50: < 500 nM

## O=C(O)COc1ccc(Br)cc1-c1nc(-c2ccccc2)no1 [D99, [4-Bromo-2-(3-phenyl-[1,2,4]oxadiazol-5-yl)phenoxy]acetic acid]
Human CRTH2 [1]; [5]
  IC50: < 500 nM
Human CRTH2 [2]; [6]
  IC50: < 500 nM

## O=C(O)COc1ccc(Br)cc1-c1nc(-c2ccc(F)cc2)no1 [D100, {4-Bromo-2-[3-(4-fluoro-phenyl)-[1,2,4]oxadiazol-5-yl]phenoxy}acetic acid]
Human CRTH2 [1]; [5]
  IC50: < 500 nM
Human CRTH2 [2]; [6]
  IC50: < 500 nM

## COc1ccc(-c2noc(-c3cc(Br)ccc3OCC(=O)O)n2)cc1 [D101, {4-Bromo-2-[3-(4-methoxy-phenyl)-[1,2,4]oxadiazol-5-yl]phenoxy}acetic acid]
Human CRTH2 [1]; [5]
  IC50: < 500 nM
Human CRTH2 [2]; [6]
  IC50: < 500 nM

## O=C(O)COc1ccc(Br)cc1-c1nc(-c2ccc(Cl)cc2)no1 [D102, {4-Bromo-2-[3-(4-chlorophenyl)-[1,2,4]oxadiazol-5-yl]phenoxy}acetic acid]
Human CRTH2 [1]; [5]
  IC50: < 500 nM
Human CRTH2 [2]; [6]
  IC50: < 500 nM

## O=C(O)COc1ccc(Br)cc1-c1nc(-c2ccc(OC(F)(F)F)cc2)no1 [D103, {4-Bromo-2-[3-(4-trifluoromethoxyphenyl)-[1,2,4]oxadiazol-5-yl]phenoxy}acetic acid]
Human CRTH2 [1]; [5]
  IC50: < 500 nM
Human CRTH2 [2]; [6]
  IC50: < 500 nM

## COc1cccc(-c2noc(-c3cc(Br)ccc3OCC(=O)O)n2)c1 [D104, {4-Bromo-2-[3-(3-methoxyphenyl)-[1,2,4]oxadiazol-5-yl]phenoxy}acetic acid]
Human CRTH2 [1]; [5]
  IC50: < 500 nM
Human CRTH2 [2]; [6]
  IC50: < 500 nM

## O=C(O)COc1ccc(Br)cc1-c1nc(-c2cccc(Cl)c2)no1 [D105, {4-Bromo-2-[3-(3-chlorophenyl)-[1,2,4]oxadiazol-5-yl]phenoxy}acetic acid]
Human CRTH2 [1]; [5]
  IC50: < 500 nM
Human CRTH2 [2]; [6]
  IC50: < 500 nM

## O=C(O)COc1ccc(Br)cc1-c1nc(-c2ccc(C(F)(F)F)cc2)no1 [D106, {4-Bromo-2-[3-(4-trifluoromethyl-phenyl)-[1,2,4]oxadiazol-5-yl]phenoxy}-acetic acid]
Human CRTH2 [1]; [5]
  IC50: < 500 nM
Human CRTH2 [2]; [6]
  IC50: < 500 nM

## COc1ccccc1-c1noc(-c2cc(Br)ccc2OCC(=O)O)n1 [D107, {4-Bromo-2-[3-(2-methoxyphenyl)-[1,2,4]oxadiazol-5-yl]phenoxy}acetic acid]
Human CRTH2 [1]; [5]
  IC50: < 500 nM
Human CRTH2 [2]; [6]
  IC50: < 500 nM

## O=C(O)COc1ccc(Br)cc1-c1nc(-c2ccccc2Cl)no1 [D108, {4-Bromo-2-[3-(2-chlorophenyl)-[1,2,4]oxadiazol-5-yl]phenoxy}acetic acid]
Human CRTH2 [1]; [5]
  IC50: < 500 nM
Human CRTH2 [2]; [6]
  IC50: < 500 nM
